Measurements taken from patent US10294202B2, “Pyrrolidinones as herbicides” (FMC Corporation, priority 2013, dated 2019).

What was measured:
[1] = test system: rice; assay: Test B flooded paddy test; type: in vivo, Oryza sativa; details: 500 g ai/ha, Flood; scale of 0 to 100 where 0 is no effect and 100 is complete control
In short: (§1)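 In-water application to pots flooded 3 cm deep, plants at 2-leaf stage. Held in greenhouse 13–15 days at constant flood depth. Scored 0–100 by eye against controls.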

[2] = test system: wheat; assay: Test A pre-/postemergence herbicide test; type: in vivo, Triticum aestivum; details: Postemergence; for Plant response rating, Wheat: 125 g ai/ha, 0 to 100 scale, 0 no effect, 100 complete control; for Wheat plant response rating (0 to 100 scale, 0 is no effect, 100 is complete control): 500 g ai/ha
In short: (§2)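 Greenhouse pot test with pre- and postemergence application of surfactant-containing solvent formulations. Postemergence plants were 2–10 cm, one- to two-leaf stage. Response scored visually after ~10 days, 0 (no effect) to 100 (complete control).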

[3] = test system: ragweed; assay: Test A pre-/postemergence herbicide test; type: in vivo, Ambrosia elatior; details: for Plant response rating, Ragweed: 0 to 100 scale
In short: as §2

[4] = test system: barnyardgrass; assay: Test B flooded paddy test; type: in vivo, Echinochloa crus-galli; details: 500 g ai/ha, Flood; scale of 0 to 100 where 0 is no effect and 100 is complete control
In short: as §1

[5] = test system: giant foxtail; assay: Test A pre-/postemergence herbicide test; type: in vivo, Setaria faberii; details: for Plant response rating, Foxtail, Giant: 0 to 100 scale
In short: as §2

[6] = test system: corn; assay: Test A pre-/postemergence herbicide test; type: in vivo, Zea mays; details: Postemergence
In short: as §2

[7] = test system: ducksalad; assay: Test B flooded paddy test; type: in vivo, Heteranthera limosa; details: 500 g ai/ha, Flood; scale of 0 to 100 where 0 is no effect and 100 is complete control
In short: as §1

[8] = test system: sedge, umbrella; assay: Test B flooded paddy test; type: in vivo, Cyperus difformis; details: 500 g ai/ha, Flood; scale of 0 to 100 where 0 is no effect and 100 is complete control
In short: as §1

[9] = test system: kochia; assay: Test A pre-/postemergence herbicide test; type: in vivo, Kochia scoparia; details: for Plant response rating, Kochia: 0 to 100 scale
In short: as §2

[10] = test system: blackgrass; assay: Test A postemergence herbicide test; type: in vivo, Alopecurus myosuroides
In short: (§3)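 Blackgrass and galium grown in pots of loam soil–sand blend, treated postemergence at 2–10 cm height, one- to two-leaf stage. Plants kept in greenhouse ~10 days, then visually rated for injury against untreated controls on a 0–100 scale (0 no effect, 100 complete control).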

[11] = test system: galium; assay: Test A postemergence herbicide test; type: in vivo, Galium aparine; details: for Plant response rating, Galium: 125 g ai/ha, 0 to 100 scale, 0 no effect, 100 complete control; for Galium plant response rating (0 to 100 scale, 0 is no effect, 100 is complete control): 500 g ai/ha
In short: as §3

[12] = test system: ryegrass, Italian; assay: Test A pre-/postemergence herbicide test; type: in vivo, Lolium multiflorum; details: for Plant response rating, Ryegrass, Italian: 0 to 100 scale
In short: as §2

[13] = test system: barnyardgrass; assay: Test A pre-/postemergence herbicide test; type: in vivo, Echinochloa crus-galli
In short: as §2

[14] = test system: pigweed; assay: Test A pre-/postemergence herbicide test; type: in vivo, Amaranthus retroflexus; details: for Plant response rating, Pigweed: 0 to 100 scale
In short: as §2

[15] = 125 g ai/ha, visual rating, 0 no effect, 100 complete control, approximately 10 days, preemergence
[16] = Postemergence, 125 g ai/ha, 0 no effect, 100 complete control
[17] = 125 g ai/ha, 0 to 100 scale, 0 no effect, 100 complete control
[18] = 500 g ai/ha, 0 to 100 scale (0 no effect, 100 complete control)
[19] = 125 g ai/ha, visual rating, 0 to 100 scale, 0 no effect, 100 complete control, approximately 10 days, preemergence
[20] = Postemergence, 125 g ai/ha, 0 to 100 scale, 0 no effect, 100 complete control
[21] = Postemergence, 500 g ai/ha, 0 to 100 scale (0 no effect, 100 complete control)
[22] = preemergence, 500 g ai/ha, 0 to 100 scale (0 no effect, 100 complete control)

Row | SMILES | Plant response rating, Rice [1] | Plant response rating, Wheat [2] | Wheat plant response rating (0 to 100 scale, 0 is no effect, 100 is complete control) [2] | Plant response rating, Ragweed [3, 15] | Plant response rating, Ragweed [3, 16] | Ragweed plant response rating (0 to 100 scale, 0 is no effect, 100 is complete control) ([3]; Postemergence, 500 g ai/ha) | Plant response rating, Ragweed ([3]; preemergence, 500 g ai/ha) | Plant response rating, Barnyardgrass [4] | Plant response rating, Foxtail, Giant [5, 15] | Plant response rating, Foxtail, Giant [5, 16] | Foxtail, Giant plant response rating (0 to 100 scale, 0 is no effect, 100 is complete control) ([5]; Postemergence, 500 g ai/ha) | Plant response rating, Foxtail, Giant ([5]; preemergence, 500 g ai/ha) | Plant response rating, Corn [6, 17] | Plant response rating, Ducksalad [7] | Plant response rating, Sedge, Umbrella [8] | Plant response rating, Kochia [9, 15] | Plant response rating, Kochia [9, 16] | Kochia plant response rating (0 to 100 scale, 0 is no effect, 100 is complete control) ([9]; Postemergence, 500 g ai/ha) | Plant response rating, Kochia ([9]; preemergence, 500 g ai/ha) | Plant response rating, Blackgrass [10, 17] | other results
1 | O=C1NCC(c2cccc(OC(F)(F)C(F)F)c2)C1C(=O)Nc1cccc(F)c1F (racemic) [Compound 123] | 0 | 50 | 60 | 70 | 50 | 70 | 80 | 60 | 90 | 80 | 90 | 90 | 50 | 100 | 0 | 80 | 60 | 70 | 90 | 60 | Plant response rating, Corn [6, 18]: 80; Plant response rating, Blackgrass [10, 18]: 70; Plant response rating, Galium [11]: 60; Galium plant response rating (0 to 100 scale, 0 is no effect, 100 is complete control) [11]: 70; Plant response rating, Ryegrass, Italian [12, 15]: 40; Plant response rating, Ryegrass, Italian [12, 16]: 40; Ryegrass, Italian plant response rating (0 to 100 scale, 0 is no effect, 100 is complete control) ([12]; Postemergence, 500 g ai/ha): 50; Plant response rating, Ryegrass, Italian ([12]; preemergence, 500 g ai/ha): 60; Plant response rating, Barnyardgrass [13, 19]: 80; Plant response rating, Barnyardgrass [13, 20]: 70; Plant response rating, Barnyardgrass [13, 21]: 80; Plant response rating, Barnyardgrass [13, 22]: 90; Plant response rating, Pigweed [14, 15]: 70; Plant response rating, Pigweed [14, 16]: 80; Pigweed plant response rating (0 to 100 scale, 0 is no effect, 100 is complete control) ([14]; Postemergence, 500 g ai/ha): 90; Plant response rating, Pigweed ([14]; preemergence, 500 g ai/ha): 80
2 | O=C1NCC(c2cccc(OC(F)(F)C(F)F)c2)C1C(=O)Nc1ccccc1Cl (racemic) [Compound 125] | 0 | 0 | 0 | 0 | 0 | 0 | 0 | 30 | 80 | 70 | 80 | 90 | 0 | 85 | 0 | 30 | 20 | 60 | 70 | 20 | Plant response rating, Corn [6, 18]: 0; Plant response rating, Blackgrass [10, 18]: 50; Plant response rating, Galium [11]: 0; Galium plant response rating (0 to 100 scale, 0 is no effect, 100 is complete control) [11]: 60; Plant response rating, Ryegrass, Italian [12, 15]: 0; Plant response rating, Ryegrass, Italian [12, 16]: 0; Ryegrass, Italian plant response rating (0 to 100 scale, 0 is no effect, 100 is complete control) ([12]; Postemergence, 500 g ai/ha): 0; Plant response rating, Ryegrass, Italian ([12]; preemergence, 500 g ai/ha): 20; Plant response rating, Barnyardgrass [13, 19]: 80; Plant response rating, Barnyardgrass [13, 20]: 60; Plant response rating, Barnyardgrass [13, 21]: 70; Plant response rating, Barnyardgrass [13, 22]: 90; Plant response rating, Pigweed [14, 15]: 0; Plant response rating, Pigweed [14, 16]: 0; Pigweed plant response rating (0 to 100 scale, 0 is no effect, 100 is complete control) ([14]; Postemergence, 500 g ai/ha): 20; Plant response rating, Pigweed ([14]; preemergence, 500 g ai/ha): 0
3 | COc1cc(C2CNC(=O)C2C(=O)Nc2ccc(F)cc2F)ccc1F (racemic) [Compound 131] | 0 | 0 | 0 | 0 | 0 | 0 | 0 | 40 | 50 | 50 | 50 | 60 | 0 | 70 | 30 | 0 | 0 | 0 | 0 | 0 | Corn plant response rating (0 to 100 scale, 0 is no effect, 100 is complete control) ([6]; 500 g ai/ha): 0; Blackgrass plant response rating (0 to 100 scale, 0 is no effect, 100 is complete control) ([10]; 500 g ai/ha): 0; Plant response rating, Galium [11]: 0; Galium plant response rating (0 to 100 scale, 0 is no effect, 100 is complete control) [11]: 0; Plant response rating, Ryegrass, Italian [12, 15]: 0; Plant response rating, Ryegrass, Italian [12, 16]: 0; Ryegrass, Italian plant response rating (0 to 100 scale, 0 is no effect, 100 is complete control) ([12]; Postemergence, 500 g ai/ha): 0; Plant response rating, Ryegrass, Italian ([12]; preemergence, 500 g ai/ha): 0; Plant response rating, Barnyardgrass [13, 19]: 50; Plant response rating, Barnyardgrass [13, 20]: 50; Barnyardgrass plant response rating (0 to 100 scale, 0 is no effect, 100 is complete control) ([13]; Postemergence, 500 g ai/ha): 60; Plant response rating, Barnyardgrass [13, 22]: 60; Plant response rating, Pigweed [14, 15]: 0; Plant response rating, Pigweed [14, 16]: 0; Pigweed plant response rating (0 to 100 scale, 0 is no effect, 100 is complete control) ([14]; Postemergence, 500 g ai/ha): 0; Plant response rating, Pigweed ([14]; preemergence, 500 g ai/ha): 0
